# Patent publication US11505523B2, “HDAC8 inhibitors for treating cancer” (City of Hope, priority 2013, dated 2022)
# Experiments:
# [1] = test system: Ac-p53 in non-inv(16) AML (p53 non-mutated) CD34^+ cells; experiment: Western blot of Ac-p53 in non-inv(16) AML CD34+ cells; conditions: similar treatment
# Text: (§2) We therefore tested whether inhibiting HDAC8 deacetylase activity in inv(16)^+ AML CD34^+ cells could similarly lead to increased p53 acetylation and transcriptional activity.
# MOLM13 cells [2] = experiment: Survival/apoptosis of MOLM13 AML cells by Annexin V labeling; assay type: cell-based, human
# [3] = test system: Ac-p53 and p53 in MV4-11 cells; experiment: Western blot of Ac-p53 and p53 in MV4-11 cells; assay type: cell-based, human; conditions: 6-hr, increased HDAC8i concentration
# Method: FIGS. 21A-21D. HDAC8 inhibition activates p53 and induces p53-dependent apoptosis in human AML cells. […] FIG. 21B: Western blot analysis of Ac-p53, total p53, Ac-H3, Ac-H4, β-actin in MV4-11 cells treated with indicated doses of HDAC8i for 6 h. FIG. 21C: Fold change in mRNA levels of p53 targets after treatment with PCI-48012 ([…]) for 16 h. FIG. 21D: Western blot analysis of p53, β-actin in MV4-11 cells transduced with control or sh-p53 (top). Relative survival of control or sh-p53 transduced MV4-11 cells treated with HDAC8i (bottom).
# [4] = test system: p53 target genes in pre-leukemic and leukemic progenitor cells expressing CM; conditions: 10 μM, 16 h, qRT-PCR
# Text: Relative expression of each target gene was normalized to levels of Hprt. Shown are fold activation compared to levels in vehicle treated cells (dashed line). Results represent the mean±SD.
# We next examined whether enhanced p53 acetylation translate into increased p53 transcriptional activity. Using qRT-PCR assay, we accessed induction of p53 target genes in CM-ΔC95, CM, and CBFβ expressing cells upon IR (3Gy).
# [5] = test system: p53 target genes in normal CD34^+ cells; experiment: qRT-PCR of p53 target genes in normal CD34+ cells; assay type: cell-based, human; conditions: similar treatment
# Text: (§1) FIGS. 5A-5G. […] FIG. 5A: Relative expression level of HDAC8 in normal (NL) PBSC (n=7) or inv(16)^+ AML (n=7) CD34^+ cells determined by qRT-PCR. Levels of HDAC8 expression were normalized to levels of ACTB in each sample. Dashed line indicates the average of all NL PBSC samples (set to an arbitrary value of 1). […] Each dot represents an individual subject and lines indicate mean±SEM. * P<0.05; ** P<0.01; *** P<0.001. […] Each dot represents an individual patient and lines indicate mean±SEM. * P<0.05; ** P<0.01; *** P<0.001. […] Levels of β-actin were detected as loading control. Shown are representative results from four patients. […] Each dot represents an individual subject and lines indicate mean±SEM. Dash line indicates levels in vehicle treated cells. * P<0.05; ** P<0.01; *** P<0.001. […] Each dot represents an individual patient and lines indicate mean±SEM.
# HDAC3 = HDAC3 (Homo sapiens (Human), UniProt O15379); experiment: Inhibition of purified HDAC3; conditions: read-out: HDAC 3 IC50; class I
# Chain of HDAC3 (O15379 whole entry, looked up, species assumed): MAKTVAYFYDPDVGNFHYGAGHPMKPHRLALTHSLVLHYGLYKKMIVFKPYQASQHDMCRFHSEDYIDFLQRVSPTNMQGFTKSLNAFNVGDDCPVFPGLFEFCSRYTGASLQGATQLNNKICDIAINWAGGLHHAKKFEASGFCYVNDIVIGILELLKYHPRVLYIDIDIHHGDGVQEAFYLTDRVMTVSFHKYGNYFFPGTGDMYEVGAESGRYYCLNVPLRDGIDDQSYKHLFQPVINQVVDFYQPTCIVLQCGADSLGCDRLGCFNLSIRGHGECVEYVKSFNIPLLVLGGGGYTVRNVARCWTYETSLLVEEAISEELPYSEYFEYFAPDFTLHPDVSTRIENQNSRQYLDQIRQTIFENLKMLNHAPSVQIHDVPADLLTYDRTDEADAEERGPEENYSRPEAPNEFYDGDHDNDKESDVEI
# Chain of HDAC3 (Q9Y618 whole entry partner, looked up, species assumed): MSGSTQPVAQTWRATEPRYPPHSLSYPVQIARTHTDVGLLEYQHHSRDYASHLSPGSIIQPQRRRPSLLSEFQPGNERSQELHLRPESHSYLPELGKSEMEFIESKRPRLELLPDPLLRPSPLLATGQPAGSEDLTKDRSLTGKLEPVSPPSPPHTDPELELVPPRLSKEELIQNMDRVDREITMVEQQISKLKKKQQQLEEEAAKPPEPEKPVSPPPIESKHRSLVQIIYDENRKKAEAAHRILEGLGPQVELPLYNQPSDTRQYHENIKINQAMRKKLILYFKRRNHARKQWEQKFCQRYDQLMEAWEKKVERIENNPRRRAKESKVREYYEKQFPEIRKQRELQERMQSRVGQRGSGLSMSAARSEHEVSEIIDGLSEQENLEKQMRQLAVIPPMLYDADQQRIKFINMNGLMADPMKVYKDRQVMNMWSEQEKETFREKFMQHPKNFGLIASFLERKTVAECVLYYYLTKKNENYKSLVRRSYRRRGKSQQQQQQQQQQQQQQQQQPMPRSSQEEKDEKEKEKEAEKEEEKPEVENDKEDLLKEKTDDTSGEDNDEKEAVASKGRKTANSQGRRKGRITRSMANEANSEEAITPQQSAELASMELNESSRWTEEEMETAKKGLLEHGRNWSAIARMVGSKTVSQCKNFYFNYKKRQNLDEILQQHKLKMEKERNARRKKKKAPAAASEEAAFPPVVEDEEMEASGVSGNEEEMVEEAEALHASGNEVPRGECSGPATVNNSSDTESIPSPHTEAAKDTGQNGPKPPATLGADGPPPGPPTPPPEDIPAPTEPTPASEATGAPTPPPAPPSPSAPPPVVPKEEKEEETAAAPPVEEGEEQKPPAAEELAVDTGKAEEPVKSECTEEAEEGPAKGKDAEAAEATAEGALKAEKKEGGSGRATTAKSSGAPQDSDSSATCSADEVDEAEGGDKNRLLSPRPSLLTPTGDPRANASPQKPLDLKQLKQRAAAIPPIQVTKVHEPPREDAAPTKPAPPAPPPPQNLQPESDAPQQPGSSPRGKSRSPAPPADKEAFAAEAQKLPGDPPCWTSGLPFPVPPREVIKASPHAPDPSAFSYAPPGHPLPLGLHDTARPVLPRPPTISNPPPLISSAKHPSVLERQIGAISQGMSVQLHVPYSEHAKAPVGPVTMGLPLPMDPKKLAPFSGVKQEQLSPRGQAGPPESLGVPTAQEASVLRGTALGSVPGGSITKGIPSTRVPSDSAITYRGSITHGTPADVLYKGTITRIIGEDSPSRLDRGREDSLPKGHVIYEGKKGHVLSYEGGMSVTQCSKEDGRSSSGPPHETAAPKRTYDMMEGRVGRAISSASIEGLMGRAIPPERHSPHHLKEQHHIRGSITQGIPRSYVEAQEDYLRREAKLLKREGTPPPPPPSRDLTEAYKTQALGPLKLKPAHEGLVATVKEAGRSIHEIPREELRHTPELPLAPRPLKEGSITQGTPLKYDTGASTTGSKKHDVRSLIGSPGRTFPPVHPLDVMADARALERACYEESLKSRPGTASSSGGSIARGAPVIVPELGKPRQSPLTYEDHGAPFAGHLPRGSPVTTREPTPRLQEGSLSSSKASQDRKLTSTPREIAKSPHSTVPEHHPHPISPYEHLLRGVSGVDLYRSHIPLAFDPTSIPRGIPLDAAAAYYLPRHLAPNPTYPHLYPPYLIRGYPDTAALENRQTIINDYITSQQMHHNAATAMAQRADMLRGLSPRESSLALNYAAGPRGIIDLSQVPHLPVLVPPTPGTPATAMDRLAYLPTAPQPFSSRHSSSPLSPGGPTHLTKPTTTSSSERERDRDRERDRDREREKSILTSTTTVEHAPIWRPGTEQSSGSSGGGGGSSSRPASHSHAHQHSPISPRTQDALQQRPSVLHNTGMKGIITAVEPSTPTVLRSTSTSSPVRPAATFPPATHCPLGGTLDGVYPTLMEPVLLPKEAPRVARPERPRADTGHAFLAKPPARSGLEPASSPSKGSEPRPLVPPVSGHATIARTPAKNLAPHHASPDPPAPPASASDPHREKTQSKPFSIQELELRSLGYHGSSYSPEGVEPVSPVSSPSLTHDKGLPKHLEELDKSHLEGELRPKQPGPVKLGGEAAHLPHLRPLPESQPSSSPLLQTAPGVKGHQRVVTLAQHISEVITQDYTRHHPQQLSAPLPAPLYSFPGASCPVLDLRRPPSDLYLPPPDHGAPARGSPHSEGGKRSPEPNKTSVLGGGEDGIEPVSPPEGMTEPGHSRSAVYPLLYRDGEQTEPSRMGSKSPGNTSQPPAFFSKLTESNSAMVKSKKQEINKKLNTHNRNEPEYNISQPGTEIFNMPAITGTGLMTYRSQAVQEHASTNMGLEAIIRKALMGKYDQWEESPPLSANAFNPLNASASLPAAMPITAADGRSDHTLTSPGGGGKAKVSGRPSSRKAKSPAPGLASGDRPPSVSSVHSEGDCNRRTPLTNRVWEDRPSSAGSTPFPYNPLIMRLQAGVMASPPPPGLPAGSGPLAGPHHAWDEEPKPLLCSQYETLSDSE
# [6] = test system: inv(16)^+ AML CD34^+ cells; experiment: Apoptosis of inv(16)+ AML CD34+ cells, Annexin V staining; assay type: cell-based, human
# Text: Given that the frequency of TP53 mutation is relatively low in AML, altered post-translational modification by HDAC8 could represent an alternative p53-inactivating mechanism and contribute to drug resistance of AML stem cells. We first examined the expression of HDAC8 in CD34^+ stem and progenitor cells isolated from patients with inv(16)^+ AML compared to normal mobilized peripheral blood stem cells (PBSC).
# normal IMR-90 cells = experiment: Cytotoxicity in normal IMR-90 cells; conditions: result in words
# HeLa nuclear HDACs = experiment: Inhibition of HeLa nuclear HDACs (HeLa nuclear extract, mainly HDACs1-3); assay type: biochemical; conditions: read-out: HeLa HDAC IC50
# CM-p53 protein complex = experiment: Interaction of CM with p53 under HDAC8i treatment; assay type: cell-based
# Text: Cells were lysed in RIPA buffer containing protease inhibitor cocktail (Roche) and MG132. Antibodies used for IP were conjugated with protein A/G beads using the antibody cross-linking kit (Pierce Biotechnology, Rockford, Ill.) following manufacturer's protocol. For Western blot, proteins were resolved in 10% SDS-PAGE. The antibodies used induced anti-FLAG (Sigma), anti-HDAC8, anti-CBFβ (Santa Cruz), anti-p53 (DO-1), anti-Ac-p53 (K379) (Cell Signaling), anti-p53 (Cell signaling) and anti-β-actin (Sigma). Horseradish peroxidase-conjugated anti-rabbit or anti-mouse secondary antibodies (Jackson ImmunoResearch, West Grove Pa.) were used, followed by detection using the SuperFemto kit (Pierce Biotechnology, Rockford, Ill.).
# Class 1 HDACs, including HDAC1, HDAC2, and HDAC3, reportedly could inhibit p53 activity by deacetylating p53 [41-43]. […] To test this, we used lentivirus (pLKO. 1) mediated expression of 2 independent small-hairpin (sh)-RNA sequences against Hdac8 to specifically knock-down Hdac8 in 32D-CM cells. Cells were exposed to IR (3Gy) and analyzed for levels of p53 acetylation 6 h after.
# A549 cells = experiment: Cytotoxicity / anti-proliferative activity in A549 lung cancer cells; conditions: result in words
# MOLM13 cells [7] = experiment: Proliferation of MOLM13 cells, luminescent cell viability assay; assay type: cell-based, human; conditions: 48-hr, luminescent cell viability assay; read-out: MOLM13 Proliferation IC50
# HDAC10 = HDAC10 (Homo sapiens (Human), UniProt Q969S8); experiment: Inhibition of purified HDAC10; conditions: read-out: HDAC 10 IC50; class II
# Chain of HDAC10 (Q969S8 whole entry, species assumed): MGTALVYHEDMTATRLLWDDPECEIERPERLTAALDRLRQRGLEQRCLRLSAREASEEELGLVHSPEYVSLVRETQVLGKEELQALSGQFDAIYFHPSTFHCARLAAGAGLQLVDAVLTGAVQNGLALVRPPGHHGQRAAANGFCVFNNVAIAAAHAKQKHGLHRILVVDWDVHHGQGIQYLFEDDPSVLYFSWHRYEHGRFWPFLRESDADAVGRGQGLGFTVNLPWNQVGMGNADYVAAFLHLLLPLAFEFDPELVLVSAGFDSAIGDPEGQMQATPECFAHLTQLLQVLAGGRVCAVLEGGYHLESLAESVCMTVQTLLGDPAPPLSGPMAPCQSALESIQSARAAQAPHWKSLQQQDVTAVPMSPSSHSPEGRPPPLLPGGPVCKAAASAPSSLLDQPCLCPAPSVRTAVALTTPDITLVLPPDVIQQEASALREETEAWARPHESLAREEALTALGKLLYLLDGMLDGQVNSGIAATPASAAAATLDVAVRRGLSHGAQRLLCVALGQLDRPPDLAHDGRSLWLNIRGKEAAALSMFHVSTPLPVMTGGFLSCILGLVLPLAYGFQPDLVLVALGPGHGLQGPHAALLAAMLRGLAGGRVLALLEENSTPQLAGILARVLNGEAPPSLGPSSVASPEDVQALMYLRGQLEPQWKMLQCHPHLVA
# [8] = test system: p53 target genes in 32D-CM cells; experiment: qRT-PCR of p53 target genes in 32D-CM cells; assay type: cell-based; conditions: 10 μM, 16 h
# MV4-11 cells = experiment: Proliferation of MV4-11 cells, luminescent cell viability assay; assay type: cell-based, human; conditions: 48-hr, luminescent cell viability assay; read-out: MV4-11 Proliferation IC50
# HDAC11 = HDAC11 (Homo sapiens (Human), UniProt Q96DB2); experiment: Inhibition of purified HDAC11; conditions: read-out: HDAC 11 IC50; class IV
# Chain of HDAC11 (Q96DB2 whole entry, species assumed): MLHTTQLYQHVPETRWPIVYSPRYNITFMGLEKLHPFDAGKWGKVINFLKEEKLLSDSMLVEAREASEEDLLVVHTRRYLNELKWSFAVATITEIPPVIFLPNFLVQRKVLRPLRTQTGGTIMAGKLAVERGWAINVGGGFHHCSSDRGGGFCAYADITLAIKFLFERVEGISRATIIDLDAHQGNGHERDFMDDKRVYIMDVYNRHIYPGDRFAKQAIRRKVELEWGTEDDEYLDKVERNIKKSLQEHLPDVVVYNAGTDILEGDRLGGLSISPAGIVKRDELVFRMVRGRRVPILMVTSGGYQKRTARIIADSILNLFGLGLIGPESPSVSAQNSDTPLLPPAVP
# [9] = test system: p53 target genes in inv(16)^+ AML CD34^+ cells; experiment: qRT-PCR of p53 target genes in inv(16)+ AML CD34+ cells; assay type: cell-based, human; conditions: 10 μM, 16 h
# Text: as §1
# KG1a cells = experiment: Survival of KG1a AML cells by Annexin V labeling; assay type: cell-based, human; conditions: 48 h, result in words
# [10] = test system: Ac-p53 (K382) in inv(16)^+ AML CD34^+ cells; experiment: Western blot of Ac-p53 (K382) in inv(16)+ AML CD34+ cells; conditions: 6 h
# Text: as §2
structure (smiles),measurement,setting,value
"COc1ccc(/C=C/C(=O)NO)c(-c2ccc(-c3ccccc3)cc2)c1 [Compound 22d, (E)-N-Hydroxy-4-methoxy-2-(biphenyl-4-yl)cinnamide]",Ac-p53 level in non-inv(16) AML CD34+ cells,[1],did not affect Ac-p53
same,IC50,"MOLM13 cells [2]; 48-hr, Annexin V labeling, read-out: MOLM13 Apoptosis IC50",3620 nM
same,survival of MOLM13 cells,"MOLM13 cells [2]; 48 h, result in words",decreases with increased HDAC8i concentration
same,Ac-p53 and p53 signal by western blot,[3],greater signal for Ac-p53 and p53
same,activation of p53 target genes in progenitor cells expressing endogenous levels of CM,[4],induces activation of p53 targets
same,p53 target expression in normal CD34+ cells,[5],no or little change in p53 target expression
same,IC50,HDAC3,3 ± 0.1 nM
same,apoptosis of inv(16)+ AML CD34+ cells,"[6]; 48 h, compared to normal CD34+ cells or non-inv(16) AML",selectively induced apoptosis
same,22d-induced apoptosis after p53 knock-down,"[6]; p53 shRNA vs non-silencing shRNA control, 2.5-40 μM",reduction of 22d-induced apoptosis
same,cytotoxicity in normal IMR-90 cells,normal IMR-90 cells,no significant cytotoxicity
same,IC50,HeLa nuclear HDACs,> 10000 nM
same,interaction of CM with p53,CM-p53 protein complex,did not disrupt the interaction of CM with p53
same,anti-proliferative effects in A549 cells,A549 cells,moderate anti-proliferative effects
same,IC50,MOLM13 cells [7],2420 nM
same,IC50,HDAC10,> 20 nM
same,"activation of p53 targets (Bax, Puma, p21, Gadd45b and LincRNA-p21)",[8],Variable levels of activation
same,IC50,MV4-11 cells,2480 nM
same,IC50,HDAC11,> 20 nM
same,expression of p53 target genes in inv(16)+ AML CD34+ cells,[9],significantly induced expression of p53 target genes
same,survival of KG1a cells,KG1a cells,decreases with increased HDAC8i concentration
same,Ac-p53 (K382) level in inv(16)+ AML CD34+ cells,[10],elevated levels of Ac-p53 (K382)
